According to BindingDB's records for doi:10.1016/j.ejmech.2017.01.044 (Universidade De Lisboa, 2017):

Assay: Inhibition of human ABCB1 expressed in mouse L5178Y cells assessed as reduction in cell growth after 24 hrs by MTT assay

First: CC[C@H]1CN(C)[C@H]2Cc3c(n(CCN(CC)CC)c4ccccc34)C(=O)C[C@H]1[C@@H]2C(=O)OC
Second: CC[C@H]1CN(C)[C@H]2Cc3c(n(C)c4ccccc34)C(=O)C[C@H]1[C@@H]2C(=O)OC
The IC50 of the first is higher: greater than 100 µM for the first, 89.2 µM for the second.

Going from CC[C@H]1CN(C)[C@H]2Cc3c([nH]c4ccccc34)/C(=N/Nc3cnccn3)C[C@H]1[C@@H]2C(=O)OC to CC[C@@H]1CN(C)[C@H]2Cc3c([nH]c4ccccc34)/C(=N/Nc3cnccn3)C[C@H]1[C@@H]2C(=O)OC, the IC50 rises from 84.8 µM to greater than 100 µM.

CC[C@@H]1CN(C)[C@H]2Cc3c([nH]c4ccccc34)C(=O)C[C@H]1[C@@H]2C(=O)OC and CC[C@H]1CN(C)[C@H]2Cc3c([nH]c4ccccc34)C(=O)C[C@H]1[C@@H]2C(=O)OC cannot be ordered by IC50: greater than 100 µM for the first, greater than 100 µM for the second.

First: CC[C@H]1CN(C)[C@H]2Cc3c(n(Cc4ccccc4)c4ccccc34)C(=O)C[C@H]1[C@@H]2C(=O)OC
Second: CC[C@H]1CN(C)[C@H]2Cc3c(n(C(=O)c4cccc(C)c4)c4ccccc34)C(=O)C[C@H]1[C@@H]2C(=O)OC
The IC50 of the first is lower: 38.1 µM for the first, greater than 100 µM for the second.

CC[C@@H]1CN(C)[C@H]2Cc3c([nH]c4ccccc34)[C@@H](OC(=O)C34CC5CC(CC(C5)C3)C4)C[C@H]1[C@@H]2C(=O)OC and C/C=C/C(=O)O[C@H]1C[C@@H]2[C@@H](CC)CN(C)[C@@H](Cc3c1[nH]c1ccccc31)[C@H]2C(=O)OC cannot be ordered by IC50: greater than 100 µM for the first, greater than 100 µM for the second.

CC[C@H]1CN(C)[C@H]2Cc3c([nH]c4ccccc34)/C(=N/Nc3ccc(Br)cn3)C[C@H]1[C@@H]2C(=O)OC and CC[C@@H]1CN(C)[C@H]2Cc3c([nH]c4ccccc34)/C(=N/Nc3ccc(Br)cn3)C[C@H]1[C@@H]2C(=O)OC are within 1.5-fold of each other in IC50: 39.9 µM for the first, 37.6 µM for the second.

Compared with CC[C@H]1CN(C)[C@H]2Cc3c([nH]c4ccccc34)/C(=N/NC(=S)NCc3cccnc3)C[C@H]1[C@@H]2C(=O)OC, CC[C@@H]1CN(C)[C@H]2Cc3c([nH]c4ccccc34)/C(=N/Nc3ccccc3)C[C@H]1[C@@H]2C(=O)OC is 2.7-fold lower in IC50: 45.2 µM for the first, 17 µM for the second.

Going from CC[C@H]1CN(C)[C@H]2Cc3c([nH]c4ccccc34)[C@@H](O)C[C@H]1[C@@H]2C(=O)OC to CC[C@@H]1CN(C)[C@H]2Cc3c([nH]c4ccccc34)[C@@H](O)C[C@H]1[C@@H]2C(=O)OC, the IC50 falls from greater than 100 µM to 83.9 µM. The second is the more potent here.

CC[C@H]1CN(C)[C@H]2Cc3c([nH]c4ccccc34)/C(=N/NC(N)=O)C[C@H]1[C@@H]2C(=O)OC and CC[C@@H]1CN(C)[C@H]2Cc3c([nH]c4ccccc34)/C(=N/NC(N)=O)C[C@H]1[C@@H]2C(=O)OC cannot be ordered by IC50: greater than 100 µM for the first, greater than 100 µM for the second.

First: CC[C@H]1CN(C)[C@H]2Cc3c([nH]c4ccccc34)/C(=N/Nc3ccccc3)C[C@H]1[C@@H]2C(=O)OC
Second: CC[C@@H]1CN(C)[C@H]2Cc3c([nH]c4ccccc34)/C(=N/O)C[C@H]1[C@@H]2C(=O)OC
The IC50 of the first is 1.6-fold lower: 52.7 µM for the first, 85.4 µM for the second.

Going from CC[C@H]1CN(C)[C@H]2Cc3c([nH]c4ccccc34)/C(=N/NC(=O)OCc3ccc(OC)cc3)C[C@H]1[C@@H]2C(=O)OC to CC[C@H]1CN(C)[C@H]2Cc3c([nH]c4ccccc34)/C(=N/O)C[C@H]1[C@@H]2C(=O)OC, the IC50 falls from 52.3 µM to 16.7 µM (3.1-fold). The second is the more potent here.

CC[C@H]1CN(C)[C@H]2Cc3c([nH]c4ccccc34)C(=S)C[C@H]1[C@@H]2C(=O)OC gave an IC50 of 77.9 µM.
